Here are results for four compounds from patent US9376391B2, “Difluoromethyl-nicotinic-tetrahydronaphthyl carboxamides as fungicides” (BAYER CROPSCIENCE AKTIENGESELLSCHAFT, priority 2012, dated 2016).

Data set [1] in a line: log P by HPLC on reversed phase columns (EEC directive 79/831 Annex V.A8). It is filed as physicochemical. The conditions noted are these: Table 1, formula (I); HPLC/LC-MS at pH 2.7, 0.1% formic acid in water / acetonitrile, gradient 10% to 95%.
Data set [2] relates to Alternaria brassicae. The data set is described as follows: In vivo preventive test on Alternaria brassicae (leaf spot on radish). The conditions noted are these: spray, graded 6 days after contamination vs control plants. Summed up:
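Radish cv. Pernod Clair at cotyledon stage (grown 17 °C) sprayed with compound in acetone/tween/DMSO/water, then inoculated 24 h later with A. brassicae spores (50 000 spores per ml). Incubation 20 °C, 100% RH; % efficacy graded 6 days post-inoculation versus solvent-treated controls.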

Data set [3] concerns Pyrenophora teres. The data set is described as follows: In vivo preventive test on Pyrenophora teres (net blotch on barley). To be noted: barley, spray, graded 14 days after contamination vs control plants. As to the method:
In Vivo Preventive Test on Pyrenophora teres (Net Blotch on Barley)
The active ingredients tested are prepared by homogenization in a mixture of acetone/tween/DMSO, and then diluted with water to obtain the desired active material concentration.
Barley plants (“Plaisant” variety), sown in starter cups on a 50/50 peat soil-pozzolana substrate and grown at 22° C., are treated at the 1-leaf stage (10 cm height) by spraying with the active ingredient prepared as described above. Plants, used as controls, are treated with the mixture of acetone/tween/DMSO/water not containing the active material.
After 24 hours, the plants are contaminated by spraying the leaves with an aqueous suspension of Pyrenophora teres spores (12 000 spores per ml). The spores are collected from a 12-day-old culture. The contaminated barley plants are incubated for 48 hours at 20° C. and at 100% relative humidity, and then for 12 days at 20° C. at 70-80% relative humidity.
Grading (% of efficacy) is carried out 14 days after the contamination, in comparison with the control plants. plants.

Data set [4] deals with Puccinia recondita. The data set is described as follows: In vivo preventive test on Puccinia recondita (brown rust on wheat). The conditions noted are these: wheat, spray, graded 12 days after contamination vs control plants. The method, boiled down:
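Wheat seedlings ("Scipion") sprayed with compound at the 1-leaf stage, inoculated 24 h later with Puccinia recondita spores (100 000 spores per ml). Incubated 24 h at 20° C and 100% RH, then 10 days at 20° C and 70-80% RH. Efficacy (%) versus solvent-treated controls graded 12 days after contamination.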

For data set [5], the system named is Sphaerotheca fuliginea. The data set is described as follows: In vivo preventive test on Sphaerotheca fuliginea (powdery mildew on cucurbits). The conditions noted are these: preventive spray, gherkin plants, grading 12 days after contamination. The method, boiled down:
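Gherkin plants at Z11 cotyledon stage were sprayed with compound in acetone/tween/DMSO/water. After 24 h they were inoculated with S. fuliginea spores (100 000 spores per ml) and incubated at about 20° C and 70-80% RH. Percent efficacy versus solvent-treated controls was scored 12 days post-inoculation.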

For data set [6], the system named is Uromyces appendiculatus. The data set is described as follows: In vivo preventive test on Uromyces appendiculatus (bean rust). The conditions noted are these: preventive spray, bean plants, grading 11 days after contamination. The method, boiled down:
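'Saxa' bean plants at the 2-leaf stage were sprayed with compound and inoculated 24 h later with U. appendiculatus spores (150 000 spores per ml). Plants were incubated 24 h at 20 °C and 100% RH, then 10 days at 20 °C and 70–80% RH. Percent efficacy versus solvent-treated controls was graded 11 days post-inoculation.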

Data set [7] concerns Phakopsora pachyrhizi. The data set is described as follows: Phakopsora test (soybeans)/preventive. To be noted: evaluated 7 days after inoculation. It counts as in vivo. The method, then: Phakopsora Test (Soybeans)/Preventive
To produce a suitable preparation of active compound, 1 part by weight of active compound is mixed with the stated amounts of solvent and emulsifier, and the concentrate is diluted with water to the desired concentration.
To test for preventive activity, young plants are sprayed with the preparation of active compound at the stated rate of application. After the spray coating has dried on, the plants are inoculated with an aqueous spore suspension of the causal agent of soybean rust (Phakopsora pachyrhizi) and stay for 24 h without light in an incubation cabinet at approximately 24° C. and a relative atmospheric humidity of 95%.
The plants remain in the incubation cabinet at approximately 24° C. and a relative atmospheric humidity of approximately 80% and a day/night interval of 12 h.
The test is evaluated 7 days after the inoculation. 0% means an efficacy which corresponds to that of the untreated control, while an efficacy of 100% means that no disease is observed.

Data set [8] relates to Septoria tritici. Nature of the data set: In vivo preventive test on Septoria tritici (leaf spot on wheat). The conditions noted are these: 500 ppm, preventive spray, wheat plants, grading 24 days after contamination. The method, boiled down: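 Wheat cv. Scipion sprayed preventively at 1-leaf stage; inoculated 24 h later with Septoria tritici spores (500 000 spores per ml). Incubation 72 h at 18 °C, 100% RH, then 21 days at 90% RH; % efficacy graded 24 days after contamination against solvent-treated controls.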

As to `CCC1OC(CC)(CC)c2cccc(NC(=O)c3cccnc3C(F)F)c21` (racemic) [Example 71], the “logP^[a]” value in data set [1] is 3.23^[a]. In addition, the Eff. % in data set [2] (dose 100 ppm) is 88%; in data set [3] (dose 100 ppm), 92%; in data set [4] (dose 100 ppm) it was 98%; in data set [5] (100 ppm) it was 100%; in data set [6] (100 ppm), 100%; in data set [7] (10 ppm of active ingredient), 94%.

As to `CC1CC(C(C)C)c2cccc(NC(=O)c3cccnc3C(F)F)c21` (stereo not drawn) [Example 3], the “logP^[a]” value in data set [1] was 3.65^[a]. For the same compound, the Eff. % in data set [2] (dose 500 ppm) is 86%; in data set [3] (dose 500 ppm) it was 83%; in data set [4] (dose 500 ppm) it was 97%; in data set [8], 90%; in data set [5] (500 ppm), 95%; in data set [6] (500 ppm), 100%. In data set [7] (100 ppm of active ingredient), the Eff. % was 100%.

Take `CC1CC(C)(C)c2cccc(NC(=O)c3cccnc3C(F)F)c21` (stereo not drawn) [Example 13]: the “logP^[a]” value in data set [1] is 3.25^[a]. For the same compound, the Eff. % was determined as 93% in data set [2] (dose 500 ppm); 100% in data set [3] (dose 500 ppm); 100% in data set [4] (dose 500 ppm); 83% in data set [8]; 100% in data set [5] (500 ppm); 100% in data set [6] (500 ppm). Further, the Eff. % in data set [7] (100 ppm of active ingredient) is on record as 99%.

On to `CC(C)CC1CC(C)c2c(NC(=O)c3cccnc3C(F)F)cccc21` (stereo not drawn) [Example 57], for which the “logP^[a]” value in data set [1] was 4.15^[a]. For the same compound, the Eff. % in data set [2] (dose 500 ppm) was 97%; in data set [3] (dose 500 ppm), 97%; in data set [4] (dose 500 ppm) it was 98%; in data set [5] (500 ppm) it was 98%; in data set [6] (500 ppm), 100%; in data set [7] (10 ppm of active ingredient), 93%.
